{"source": "paper PMC3460867", "about": "“MmPPOX Inhibits Mycobacterium tuberculosis Lipolytic Enzymes Belonging to the Hormone-Sensitive Lipase Family and Alters Mycobacterial Growth” (PLoS ONE, 2012)", "key": {"LipC": {"target": "LipC (Mycobacterium tuberculosis, UniProt P96402)", "sequence (P96402 whole entry)": "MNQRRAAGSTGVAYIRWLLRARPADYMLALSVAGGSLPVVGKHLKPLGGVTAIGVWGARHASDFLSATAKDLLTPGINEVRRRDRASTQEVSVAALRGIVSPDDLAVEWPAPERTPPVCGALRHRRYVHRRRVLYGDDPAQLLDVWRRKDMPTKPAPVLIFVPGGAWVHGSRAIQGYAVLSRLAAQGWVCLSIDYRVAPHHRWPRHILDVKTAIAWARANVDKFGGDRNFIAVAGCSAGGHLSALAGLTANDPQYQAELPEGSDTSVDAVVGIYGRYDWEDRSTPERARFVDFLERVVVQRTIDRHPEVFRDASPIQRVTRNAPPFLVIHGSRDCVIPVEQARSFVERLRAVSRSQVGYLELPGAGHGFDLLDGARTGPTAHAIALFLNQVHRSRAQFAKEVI", "assay": "biochemical", "format": "biochemical", "conditions": "for x I50: inhibitor molar excess leading to 50% residual activity after 10 min incubation; for Residual activity (%) 10 min: 10 min incubation; for Residual activity (%) 30 min: 30 min incubation"}, "LipF": {"tested_on": "LipF", "format": "biochemical", "conditions": "for Residual activity (%) 10 min / Residual activity (%) 30 min: pNPC4"}, "LipH": {"tested_on": "LipH", "format": "biochemical", "conditions": "pNPC4"}, "LipI": {"target": "LipI (Mycobacterium tuberculosis, UniProt P71668)", "sequence (P71668 whole entry)": "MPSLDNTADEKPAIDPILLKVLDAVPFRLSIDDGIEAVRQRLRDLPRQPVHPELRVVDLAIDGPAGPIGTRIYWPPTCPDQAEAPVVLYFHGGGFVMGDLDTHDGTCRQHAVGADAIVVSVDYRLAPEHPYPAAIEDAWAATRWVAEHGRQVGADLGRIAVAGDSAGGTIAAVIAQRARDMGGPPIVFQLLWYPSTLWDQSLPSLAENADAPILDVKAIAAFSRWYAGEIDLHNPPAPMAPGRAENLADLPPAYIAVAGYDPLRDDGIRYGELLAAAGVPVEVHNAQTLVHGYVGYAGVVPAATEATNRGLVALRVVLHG", "assay": "biochemical", "format": "biochemical", "conditions": "for x I50: inhibitor molar excess leading to 50% residual activity after 10 min incubation; for Residual activity (%) 10 min: 10 min incubation; for Residual activity (%) 30 min: 30 min incubation"}, "LipN": {"tested_on": "LipN", "assay": "Inhibition of recombinant LipN, pre-incubation method, residual activity on pNPC4", "format": "biochemical, M. tuberculosis", "conditions": "for Residual activity (%) 10 min / Residual activity (%) 30 min: pNPC4"}, "LipR": {"tested_on": "LipR", "format": "biochemical", "conditions": "pNPC4"}, "LipU": {"target": "LipU (Mycobacterium tuberculosis, UniProt O53424)", "sequence (O53424 whole entry)": "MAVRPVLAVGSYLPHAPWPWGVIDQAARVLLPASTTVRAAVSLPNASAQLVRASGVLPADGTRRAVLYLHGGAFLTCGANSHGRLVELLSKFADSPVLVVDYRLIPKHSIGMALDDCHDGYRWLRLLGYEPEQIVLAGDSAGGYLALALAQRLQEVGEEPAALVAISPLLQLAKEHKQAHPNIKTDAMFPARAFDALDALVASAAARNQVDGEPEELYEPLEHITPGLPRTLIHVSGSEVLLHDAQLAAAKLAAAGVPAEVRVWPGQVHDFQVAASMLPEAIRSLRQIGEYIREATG", "assay": "biochemical", "format": "biochemical", "conditions": "for x I50: inhibitor molar excess leading to 50% residual activity after 10 min incubation"}, "LipW": {"tested_on": "LipW", "format": "biochemical", "conditions": "pNPC4"}, "LipY": {"target": "T1, LipY (Mycobacterium tuberculosis, UniProt I6Y2J4)", "T1 sequence (I6Y2J4 1-437)": "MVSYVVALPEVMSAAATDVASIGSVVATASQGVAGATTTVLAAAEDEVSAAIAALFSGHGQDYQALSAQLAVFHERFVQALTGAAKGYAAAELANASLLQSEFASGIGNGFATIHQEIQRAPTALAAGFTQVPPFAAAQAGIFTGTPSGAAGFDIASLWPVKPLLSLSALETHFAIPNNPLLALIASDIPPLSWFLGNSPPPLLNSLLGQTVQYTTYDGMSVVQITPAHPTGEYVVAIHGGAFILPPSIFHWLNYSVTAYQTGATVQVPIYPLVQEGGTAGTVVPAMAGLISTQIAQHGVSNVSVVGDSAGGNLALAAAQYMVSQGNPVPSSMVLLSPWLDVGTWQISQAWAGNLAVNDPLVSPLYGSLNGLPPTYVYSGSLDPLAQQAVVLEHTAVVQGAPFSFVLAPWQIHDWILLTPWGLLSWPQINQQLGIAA", "assay": "biochemical", "format": "biochemical, M. tuberculosis", "conditions": "for Ki: Apparent K i"}, "Cut6": {"target": "Cut6 (Mycobacterium tuberculosis, UniProt O53581)", "sequence (O53581 44-336)": "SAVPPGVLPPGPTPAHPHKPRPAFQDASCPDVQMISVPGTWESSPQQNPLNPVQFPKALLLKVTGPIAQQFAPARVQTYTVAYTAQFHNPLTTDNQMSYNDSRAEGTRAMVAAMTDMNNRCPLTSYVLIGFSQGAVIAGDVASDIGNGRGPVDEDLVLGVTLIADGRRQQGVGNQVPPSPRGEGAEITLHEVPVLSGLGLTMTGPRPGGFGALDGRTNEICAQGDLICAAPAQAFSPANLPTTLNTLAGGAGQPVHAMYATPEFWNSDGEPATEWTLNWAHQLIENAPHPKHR", "assay": "biochemical", "format": "biochemical", "conditions": "for x I50: inhibitor molar excess leading to 50% residual activity after 10 min incubation"}, "[1]": {"tested_on": "M. tuberculosis strain mc^27000", "assay": "microbe, parasite or virus in culture", "format": "cell-based", "conditions": "Mycobacterium tuberculosis"}, "[2]": {"tested_on": "M. bovis BCG strain Pasteur 1173P2", "assay": "microbe, parasite or virus in culture", "format": "cell-based", "conditions": "Mycobacterium tuberculosis variant bovis BCG"}, "Lip-HSL enzymes": {"tested_on": "Lip-HSL enzymes", "assay": "Inhibition of all Lip-HSL enzymes tested, pre-incubation method, residual activity on pNPC4 (statements for the family)", "format": "biochemical"}, "[3]": {"conditions": "LipC, near stoichiometric proportions of inhibitor (x I<2)"}, "[4]": {"conditions": "near stoichiometric proportions of inhibitor (x I<2)"}, "[5]": {"conditions": "LipI, near stoichiometric proportions of inhibitor (x I<2)"}}, "note": "Read-outs that look alike come from different tables or passages of the source.", "data": [{"smiles": "COc1nn(-c2cccc(Oc3ccccc3)c2)c(=O)o1", "note": "[MmPPOX, 5-methoxy-N-3-(meta-phenoxyphenyl)-1,3,4-oxadiazol-2(3H)-one]", "values": [{"measurement": "Ki", "setting": "LipC", "value": 1, "unit": "µM"}, {"measurement": "x I50 ratio", "setting": "LipC; LipC, calculated as x I50 (THL)/x I50 (MmPPOX)", "value": ">10^3"}, {"measurement": "x I50", "setting": "LipC; LipC, pNPC4", "value": 0.5}, {"measurement": "Half inactivation time (t1/2)", "setting": "LipC; [3]", "value": "< 1", "unit": "min"}, {"measurement": "Remaining activities", "setting": "LipC; [3]", "value": "< 10", "unit": "%"}, {"measurement": "Residual activity (%) 10 min", "setting": "LipC; LipC, x I = 2, pNPC4", "value": 7, "unit": "%"}, {"measurement": "Residual activity (%) 30 min", "setting": "LipC; LipC, x I = 2, pNPC4", "value": 5, "unit": "%"}, {"measurement": "Residual activity (%) 10 min", "setting": "LipC; LipC, x I = 5, pNPC4", "value": 0, "unit": "%"}, {"measurement": "Residual activity (%) 30 min", "setting": "LipC; LipC, x I = 5, pNPC4", "value": 0, "unit": "%"}, {"measurement": "Half inactivation time (t1/2)", "setting": "LipF; [4]", "value": "< 1", "unit": "min"}, {"measurement": "Remaining activities", "setting": "LipF; [4]", "value": "< 10", "unit": "%"}, {"measurement": "Residual activity (%) 10 min", "setting": "LipF; x I = 1, 10 min incubation", "value": 7, "unit": "%"}, {"measurement": "Residual activity (%) 30 min", "setting": "LipF; x I = 1, 30 min incubation", "value": 11, "unit": "%"}, {"measurement": "Residual activity (%) 10 min", "setting": "LipF; x I = 2, 10 min incubation", "value": 0, "unit": "%"}, {"measurement": "Residual activity (%) 30 min", "setting": "LipF; x I = 2, 30 min incubation", "value": 0, "unit": "%"}, {"measurement": "Residual activity (%) 10 min", "setting": "LipH; x I = 5, 10 min incubation", "value": 9, "unit": "%"}, {"measurement": "Residual activity (%) 30 min", "setting": "LipH; x I = 5, 30 min incubation", "value": 9, "unit": "%"}, {"measurement": "Residual activity (%) 10 min", "setting": "LipH; x I = 10, 10 min incubation", "value": 0, "unit": "%"}, {"measurement": "Residual activity (%) 30 min", "setting": "LipH; x I = 10, 30 min incubation", "value": 0, "unit": "%"}, {"measurement": "Ki", "setting": "LipI", "value": 0.1, "unit": "µM"}, {"measurement": "x I50 ratio", "setting": "LipI; LipI, calculated as x I50 (THL)/x I50 (MmPPOX)", "value": 131.8}, {"measurement": "x I50", "setting": "LipI; LipI, pNPC4", "value": 0.5}, {"measurement": "Half inactivation time (t1/2)", "setting": "LipI; [5]", "value": "< 1", "unit": "min"}, {"measurement": "Remaining activities", "setting": "LipI; [5]", "value": "< 10", "unit": "%"}, {"measurement": "Residual activity (%) 10 min", "setting": "LipI; LipI, x I = 1, pNPC4", "value": 7, "unit": "%"}, {"measurement": "Residual activity (%) 30 min", "setting": "LipI; LipI, x I = 1, pNPC4", "value": 6, "unit": "%"}, {"measurement": "Residual activity (%) 10 min", "setting": "LipI; LipI, x I = 2, pNPC4", "value": 0, "unit": "%"}, {"measurement": "Residual activity (%) 30 min", "setting": "LipI; LipI, x I = 2, pNPC4", "value": 0, "unit": "%"}, {"measurement": "Half inactivation time (t1/2)", "setting": "LipN; [4]", "value": "< 1", "unit": "min"}, {"measurement": "Remaining activities", "setting": "LipN; [4]", "value": "< 10", "unit": "%"}, {"measurement": "Residual activity (%) 10 min", "setting": "LipN; x I = 2, 10 min incubation", "value": 6, "unit": "%"}, {"measurement": "Residual activity (%) 30 min", "setting": "LipN; x I = 2, 30 min incubation", "value": 6, "unit": "%"}, {"measurement": "Residual activity (%) 10 min", "setting": "LipN; x I = 5, 10 min incubation", "value": 0, "unit": "%"}, {"measurement": "Residual activity (%) 30 min", "setting": "LipN; x I = 5, 30 min incubation", "value": 0, "unit": "%"}, {"measurement": "Residual activity (%) 10 min", "setting": "LipR; x I = 20, 10 min incubation", "value": 7, "unit": "%"}, {"measurement": "Residual activity (%) 30 min", "setting": "LipR; x I = 20, 30 min incubation", "value": 15, "unit": "%"}, {"measurement": "Ki", "setting": "LipU; Apparent K i, pNPC4", "value": 5.1, "unit": "µM"}, {"measurement": "x I50 ratio", "setting": "LipU; calculated as x I50 (THL)/x I50 (MmPPOX)", "value": ">333"}, {"measurement": "x I50", "setting": "LipU; pNPC4", "value": 1.5}, {"measurement": "Residual activity (%) 10 min", "setting": "LipU; x I = 20, 10 min incubation, pNPC4", "value": 10, "unit": "%"}, {"measurement": "Residual activity (%) 30 min", "setting": "LipU; x I = 20, 30 min incubation, pNPC4", "value": 17, "unit": "%"}, {"measurement": "Residual activity (%) 10 min", "setting": "LipW; x I = 20, 10 min incubation", "value": 6, "unit": "%"}, {"measurement": "Residual activity (%) 30 min", "setting": "LipW; x I = 20, 30 min incubation", "value": 13, "unit": "%"}, {"measurement": "Residual activity (%) 10 min", "setting": "LipY", "value": 5, "unit": "%"}, {"measurement": "Residual activity (%) 30 min", "setting": "LipY", "value": 5, "unit": "%"}, {"measurement": "x I50 ratio", "setting": "LipY", "value": 0.4}, {"measurement": "Ki", "setting": "LipY", "value": 7.7, "unit": "µM"}, {"measurement": "Ki", "setting": "Cut6; Apparent K i, Cut6, pNPC4", "value": "> 1000", "unit": "µM"}, {"measurement": "Ki", "setting": "Cut6; Apparent K i, Cut6, pNPC4, value of the text", "value": 6400, "unit": "µM"}, {"measurement": "x I50 ratio", "setting": "Cut6; Cut6, calculated as x I50 (THL)/x I50 (MmPPOX)", "value": "<0.1"}, {"measurement": "x I50", "setting": "Cut6; Cut6, pNPC4", "value": 227.9}, {"measurement": "Activity in the presence of inhibitor", "setting": "Cut6; Cut6, x I = 20", "value": "retained full activity"}, {"measurement": "Residual activity (%) 10 min", "setting": "Cut6; Cut6, x I = 20, 10 min incubation, pNPC4", "value": 100, "unit": "%"}, {"measurement": "Residual activity (%) 30 min", "setting": "Cut6; Cut6, x I = 20, 30 min incubation, pNPC4", "value": 100, "unit": "%"}, {"measurement": "Apparent K i for Cut6 relative to those of Lip-HSL proteins (times higher)", "setting": "Cut6; Cut6 vs Lip-HSL proteins", "value": "about 1000"}, {"measurement": "MIC", "setting": "[1]", "value": "~25", "unit": "µg/mL"}, {"measurement": "MIC", "setting": "[2]", "value": "10 to 20", "unit": "µg/mL"}, {"measurement": "Activity restoration: increase of residual activity after 30 min as compared to 10 min", "setting": "Lip-HSL enzymes; LipF, LipR, LipU and LipW", "value": "4–8%"}, {"measurement": "Half inactivation time (t1/2)", "setting": "Lip-HSL enzymes; all Lip-HSL enzymes tested, x I = 20", "value": "< 1", "unit": "min"}, {"measurement": "Remaining activities", "setting": "Lip-HSL enzymes; all Lip-HSL enzymes tested, x I = 20, 10 min incubation, pNPC4", "value": "less than 15%"}]}, {"smiles": "CCCCCCCCCCC[C@@H](C[C@@H]1OC(=O)[C@H]1CCCCCC)OC(=O)[C@H](CC(C)C)NC=O", "note": "[THL, Tetrahydrolipstatin]", "values": [{"measurement": "x I50", "setting": "LipC; LipC, pNPC4", "value": ">500"}, {"measurement": "Ki", "setting": "LipC; LipC, pNPC4, read-out: Apparent K i", "value": "> 1000", "unit": "µM"}, {"measurement": "x I50", "setting": "LipI; LipI, pNPC4", "value": 65.9}, {"measurement": "Ki", "setting": "LipI; LipI, pNPC4, read-out: Apparent K i", "value": 13.1, "unit": "µM"}, {"measurement": "x I50", "setting": "LipU; pNPC4", "value": ">500"}, {"measurement": "Ki", "setting": "LipU; pNPC4, read-out: Apparent K i", "value": "> 1000", "unit": "µM"}, {"measurement": "Ki", "setting": "LipY", "value": 3.2, "unit": "µM"}, {"measurement": "x I50", "setting": "Cut6; Cut6, pNPC4", "value": 9.7}, {"measurement": "Ki", "setting": "Cut6; Cut6, pNPC4, read-out: Apparent K i", "value": 142, "unit": "µM"}, {"measurement": "MIC", "setting": "[1]", "value": 20, "unit": "µg/mL"}, {"measurement": "MIC", "setting": "[2]", "value": 7.5, "unit": "µg/mL"}]}]}
